According to patent US7371407B2, “Use of Emu Oil and its various fractions as a carrier for antifungal, antibacterial, and antiviral medications and preparations” (Ganeden Biotech, Inc., priority 1999, dated 2008):

Columns and labels:
[1] = test system: opportunistic bacterial pathogens; assay: In vitro bacterial pathogen screen (DIFCO BACTROL Disk Set) on potato-dextrose plates; format: cell-based; settings: positive control, 18 hr at 30° C.
Description: The ability of Bacillus coagulans to inhibit various opportunistic bacterial pathogens was quantitatively ascertained by use of an in vitro assay. This assay is part of a standardized bacterial pathogen screen (developed by the U.S. Food and Drug Administration(FDA)) and is commercially available on solid support disks (DIFCO® BACTROL® Disk Set). To perform the assay, potato-dextrose plates (DIFCO®) were initially prepared using standard procedures. The plates were then individually inoculated with each of the bacteria (approximately 1.5×10^6 CFU) to be tested, so as to form a confluent bacterial bed.
Inhibition by Bacillus coagulans was subsequently ascertained by placing approximately 1.5×10^6 CFU of Bacillus coagulans in 10 μl of broth or buffer, directly in the center of the potato-dextrose plate, with one test locus being approximately 8 mm in diameter per plate. A minimum of three test loci were used for each assay. The negative control consisted of a 10 μl volume of a sterile saline solution, whereas the positive control consisted of a 10 μl volume of glutaraldehyde. The plates were then incubated for approximately about 18 hr at 30° C., at which time the zones of inhibition were measured. […]

[2] = topically-administered without dermal-penetrants; cited from earlier work
Trichophyton species = assay: In vitro inhibition assay on potato-dextrose plates, fungal pathogens; format: cell-based; settings: positive control, 18 hr at 30° C.
Method: In the assay, potato-dextrose plates (DIFCO®, Detroit, Mich.) were prepared using standard procedures and were inoculated individually with a confluent bed (about 1.7×10^6) of various species of the fungus Trichophyton. The tested fungal strains of Trichophyton species (available from the American Type Culture Collection (ATCC; Rockville, Md.)) and their ATCC accession numbers, as well as the results of in vitro inhibition by Bacillus coagulans are illustrated in FIG. 4.
Inhibition by Bacillus coagulans was ascertained by placing on the plate approximately 1.5×10^6 colony forming units (CFU) in 10 μl of broth or buffer, plated directly in the center of the potato-dextrose plate, with one test locus per plate. The size of each test locus was approximately 8 mm in diameter and a minimum of three tests were performed for each inhibition assay. The negative control consisted of a […] of sterile saline solution, whereas the positive control consisted of a […] 2% Miconazole (1-[2-(2,4-dichlorophenyl)-2-[(2,4-dichlorophenyl)methoxylmethyl-1,11-imidazole within an inert cream.
The plates were then incubated for approximately 18 hr at 30° C., at which time the zones of inhibition were measured. […]

four species of Candida = assay: In vitro inhibition assay on potato-dextrose plates, yeast pathogens; format: cell-based; settings: positive control, 18 hr at 30° C.
Method: Each of the yeast pathogens and their ATCC accession numbers are illustrated in FIG. 5.
In the in vitro inhibition assay, potato-dextrose plates (DIFCO®, Detroit, Mich.) were prepared using standard procedures and were inoculated individually with a confluent bed about 1.7×10^6 of the four species of Candida. Inhibition by Bacillus coagulans was tested by placing on the plate about 1.5×10^6 colony forming units (CFU) in 10 μl of broth or buffer, plated directly in the center of the potato-dextrose plate with one test locus of about 8 mm in diameter per plate. A minimum of three tests were performed for each inhibition assay. The negative control consisted of a 10 μl volume of a sterile saline solution, whereas the positive control consisted of a 1 μl volume of Miconazole cream.
The plates were then incubated for approximately 18 hr at 30° C., at which time the zones of inhibition were measured. As designated herein, “excellent inhibition” means the zone was 10 mm or greater in diameter; and “good inhibition” means the zone was greater than 2 mm in diameter, but less than 10 mm in diameter.

O=CCCCC=O [glutaraldehyde]
zone of inhibition, diameter ([1]; 10 μl, average of three tests): approximately 16.2 mm
inhibition class [1]: excellent (“excellent inhibition” means the zone was 10 mm or greater in diameter)

CC(C(=O)O)c1cccc(C(=O)c2ccccc2)c1 (stereo not shown) [Ketoprofen]
adsorption through viable, keritinized dermal tissue [2]: very limited concentration, if at all

Clc1ccc(COC(Cn2ccnc2)c2ccc(Cl)cc2Cl)c(Cl)c1 (stereo not shown) [Miconazole]
zone of inhibition, diameter (Trichophyton species; 2% in inert cream, mean average of three tests): approximately 8.5 mm
inhibition class (Trichophyton species): good (“good inhibition” means the zone was greater than 2 mm in diameter, but less than 10 mm in diameter)
zone of inhibition, diameter (four species of Candida; cream, average of three tests): approximately 8.7 mm
inhibition class (four species of Candida): good (“good inhibition” means the zone was greater than 2 mm in diameter, but less than 10 mm in diameter)
